pIC50: −log10 of the molar value.
What was measured:
[1] = tested on: striatal tyrosine hydroxylase-immunoreactive fibres; test: MPTP-lesioned mouse model of Parkinson's disease, striatal TH fiber density; type: in vivo; settings: 10 mg/kg s.c. in Intralipid once daily days 1-5, one hour prior to MPTP; analysis day seven
Description: MPTP (N-methyl-4-phenyl-1,2,3,6-tetrahydropyridine) is a systemically available neurotoxin specific to nigrostriatal dopaminergic neurons, i.e. to the cells that degenerate in human Parkinson's disease. Administration of MPTP to mice leads to a selective partial destruction of the mesotelencephalic dopaminergic projection, and to a loss of dopamine and dopaminergic fibres in the corpus striatum, which is the main forebrain target of midbrain dopaminergic neurons.
Young adult male CD1 albino mice (Harlan—Sprague Dawley; 22-25 g) were dosed i.p. with the dopamine cell-specific neurotoxin N-methyl-4-phenyl-1,2,3,6-tetrahydropyridine (MPTP hydrochloride, calculated as 34 mg/kg free base), dissolved in saline at a concentration of 3.4 mg/ml free base once daily on days one to five. […]
Blinded analysis of TH fiber density in the central striatum was performed at 630× magnification. […] The percentage of sample field covered by TH positive processes and terminals was calculated using an image analysis program (“Simple,” Compix Inc., Pittsburgh, Pa.). The mean striatal innervation density was calculated for each group. The magnitude of striatal deafferentation due to the MPTP lesion was assessed by dividing the observed striatal innervation values obtained in MPTP/vehicle treated cases by the mean striatal innervation density in the Vehicle/Vehicle group and expressed as % loss. […]

[2] = target: T1, recombinant rat CyPA-GST fusion protein (Rattus norvegicus, UniProt P10111); test: Rotamase (prolyl peptidyl cis-trans isomerase) inhibition, chymotrypsin-coupled cuvette assay; type: biochemical
T1 construct: made in house; host or cells: E. coli BL21
Description: (§1) A number of substrates for rotamase are known in the art or can be derived from those known. Typically, the substrate contacts a sample containing a protein with rotamase activity and the conversion of the substrate is detected after a period of time. The method for detecting conversion of the substrate will vary with the particular substrate chosen. One method has been termed the Ki test (See Harding, et al., Nature, 341:758-760 (1989). The cis-trans isomerization of an alanine-proline bond in a model substrate, N-succinyl-Ala-Ala-Pro-Phe-p-nitroanilide, is monitored spectrophotometrically in a chymotrypsin-coupled assay. The action of chymotrypsin releases p-nitroaniline from only the trans form of the substrate. The amount of p-nitroaniline can be monitored in a spectrophotometer, for example. Other methods of detecting the presence of p-nitroaniline can also be used. The inhibition of this reaction caused by different concentrations of inhibitor is determined and the data are analyzed as a change in first-order rate constant as a function of inhibitor concentration, which yields the Ki value.
(§2) The following were added to a plastic cuvette: […] of ice cold assay buffer (25 mM HEPES, pH 7.8, 100 mM NaCl), 10 μL of CyP A (2.5 μM in 10 mM Tris-Cl pH 7.5, 100 mM NaCl, 1 mM dithiothreitol), 25 μL of chymotrypsin (50 mg/ml in 1 mM HCl), and 10 μL of test compound, at various concentrations, in dimethyl sulfoxide. The reaction was initiated by the addition of 5 μL of substrate (succinyl-Ala-Phe-Pro-Phe-para-nitroanilide, 5 mg/mL in 470 mM LiCl in trifluoroethanol). The absorbance at 390 nm versus time was monitored for 90 seconds using a spectrophotometer and the rate constants were determined from the absorbance versus time data files.
(§3) The IC50 values that were obtained for representative compounds in the following Table I refer to the concentration that inhibits 50% of the rotamase activity in a sample. […] The Cyclophilin utilized was a recombinant rat CyPA-GST fusion protein: CypA was amplified from rat brain cDNA using standard PCR methods, primed with the following sequences: 5′ CCCCCCGGGAGTCAACCCCACCGTGTTCTTCGA 3′ and 5′ GGAGATCTAGAGTTGTCCACAGTCGGAGATGGT 3′. The resulting fragment (573 base pairs) was cloned into pCRII and amplified. The CyP sequence was cut out with Smal and EcoRl and cloned into the Smal/EcoRl sites in pGEX2TK (Pharmacia). This plasmid was transformed into BL21 E. coli cells for expression of the GST-CyPA fusion protein.

[3] = tested on: Sprague-Dawley rat lumbar spinal cord slices; test: Neuroprotection assay in spinal cord slice preparations (THA-induced cell death); type: cell-based; settings: THA 200 μM + compound 10 μM
Description: Neuroprotection Assay in Spinal Cord Slice Preparations: All cultures were derived from postnatal day 8 (P8) Sprague-Dawley rat lumbar spinal cord slices of 325 micron thickness, prepared using a commercially available Mcllwain tissue chopper. Each experiment consisted of two 6-well plates with 5 slices from 4 different animals per well. Media changes were performed every 3 to 4 days. Cultures were treated with THA [L(−)-threo-3-hydroxyaspartic acid; Tocris Cookson Inc., Ballwin, Mo.] at 200 μM+compound (10 μM) after one week in culture. The control was an untreated sample with 0.1% DMSO as vehicle. The THA control was a THA treated sample with 0.1% DMSO as vehicle. Two wells were used per condition. One media change with new THA and compounds was performed. […] Quantification of surviving neurons was performed on a Zeiss Axiovert microscope. Neuronal survival was determined by observing an intact neuronal cell body with processes located ventrally of the central canal in each hemisphere. […] Each hemisphere was counted individually. The statistics were performed with StatView™ software on a minimum of three different experiments per condition and significance was determined as compared to THA control. The percent of protection was determined from the average number of living neurons by the following equation: (drug treatment condition−THA control)/(Untreated control−THA control). […]

human recombinant CyPA = human recombinant CyPA (Homo sapiens, UniProt P62937); test: Rotamase inhibition, chymotrypsin-coupled cuvette assay (asterisked values); type: biochemical
Description: as §1, §2, §3

Sequence of human recombinant CyPA (P62937 whole entry): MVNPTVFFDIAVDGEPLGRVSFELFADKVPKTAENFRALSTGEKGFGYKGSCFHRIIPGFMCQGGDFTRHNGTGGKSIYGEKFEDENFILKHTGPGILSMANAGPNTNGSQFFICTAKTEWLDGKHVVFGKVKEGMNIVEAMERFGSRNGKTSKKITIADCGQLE
T1 sequence (P10111 2-164): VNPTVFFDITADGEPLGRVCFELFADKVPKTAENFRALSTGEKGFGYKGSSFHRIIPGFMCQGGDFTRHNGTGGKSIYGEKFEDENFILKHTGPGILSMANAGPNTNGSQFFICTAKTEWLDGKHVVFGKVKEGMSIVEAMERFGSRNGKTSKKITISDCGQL

## O=C(Nc1cc(Cl)cc(Cl)c1)N[C@H]1CCCC[C@H]1NC(=O)Nc1cc(Cl)cc(Cl)c1 [Compound 15a]
[1]
  protection of striatal tyrosine hydroxylase-immunoreactive fibres: 72.4%
[2]
  pIC50: 6.21
[3]
  protection from THA-induced cell death: complete protection
[3]; untreated control 26.4±4.2, THA control 15.97±2.04, mean±standard error
  SMI-32 immunoreactive neurons per ventral hemisphere: 26.5±2.7 cells/ventral hemisphere
Human recombinant CyPA
  pIC50: 6.28
